Test results from ChEMBL document CHEMBL3507680, “University of Dundee, Gates Library screen for HepG2 cell viability”.

Test: Human HepG2 cell viability assay in 384 well format
Format: toxicity, cell-based
Parameters: dose 125 nL, time 70.5 hour; cytotoxicity at 70.5 h: concentration not given beside the values
Conditions: HepG2 cells, read-out: Inhibition

SMILES	cytotoxicity at 70.5 h
CCC1(CC)Cc2ccccc2-c2nc(NCCCO)[nH]c(=O)c21	-14.8%
O=C(CC1CCc2ccccc21)NCCSc1ccccn1 (stereo not given)	11.8%
COC1COC2(CCN(CC3CCOCC3)CC2)C1 (stereo not given)	-11.1%
CN(C)c1nccc(N(C)Cc2nc3ccccc3n2C)n1	10.9%
OC1(CN2CCC(Cc3ncccn3)CC2)CCOCC1	13.1%
CC(C)c1nc(C2CCCN2C(=O)c2cnns2)no1 (stereo not given)	-1.79%
CCOc1ccc(C(=O)NCCCNc2ncccn2)cc1	17.7%
CNC(=O)CNC(=O)c1ccc(-c2scnc2C)nc1	-0.926%
O=C1O[C@@H]2CN(S(=O)(=O)N3CCCC3)C[C@@H]2N1CCc1cccc(Cl)c1	0.28%
Cc1nnc(C2CCN(c3ccccc3)CC2)o1	-9.47%
CCc1cnccc1C(=O)NC1CCN(Cc2ccccc2F)CC1	-6.35%
CC(O)CN1CCN(C(=O)CN(C)c2cnccn2)CC1 (stereo not given)	-8.51%
CCN(C)c1ncnc2c1CCN(C(=O)Cc1ccccn1)CC2	-9.09%
Cc1ccc(C)c(C(O)CN(C)Cc2nnc3ccccn23)c1 (stereo not given)	9.37%
CC(=O)N1[C@H](CN(C)C)C[C@@H]2CN(C(=O)c3cnc(C)cn3)CC[C@@H]21	-5.19%
CCC[C@]12CN3C[C@](CCC)(CN(C1)C3c1[nH]c(=O)[nH]c(=O)c1C)C2=O (stereo not given in full)	-10.7%
O=C(CN1CCc2cncnc2C1)NCCOc1cccc(Cl)c1	-4.17%
Cc1ccoc1C(=O)N1Cc2c(CN3CCCCC3)nn(C)c2C1	0.575%
CCNC(=O)NC(=O)CSC(C)c1c(F)cccc1F (stereo not given)	10.3%
Cc1nnc(CN(C)CCOc2cccc(Cl)c2)o1	-10.9%
Nc1nc(Sc2cccs2)cc(N2CC[C@H](CO)[C@H](O)C2)n1	22.1%
Cc1cc(NCc2cc3n(n2)CCCN(S(C)(=O)=O)C3)ncn1	-5.23%
CCc1nnc(CN(C)c2nc(C3CCCC3)nc3c2cnn3C)o1	-6.42%

SMILES	cytotoxicity at 70.5 h
O=c1cc2c(nn1CN1CCSCC1)CCC2	-19.6%
CCCN1CCc2nc(N3CCOCC3)nc(NC(C)C)c2C1	-8.9%
CNc1nccnc1C1CCN(C(C)C)CC1	12.4%
O=C1COC2(CCN(CC3CC3)CC2)CN1c1ccccc1	-9.15%
Cc1n[nH]c(C)c1CCN(C)C(=O)c1ccc(CCC(C)(C)O)cc1	-3.14%
CCCc1noc(CN2CCCC2c2noc(C3CC3)n2)n1 (stereo not given)	-4.28%
CCC(NC(=O)C(C)C)c1ccccc1C (stereo not given)	-5.31%
COc1ccc2c(c1)C(NCCc1ccccn1)CCCO2 (stereo not given)	16.8%
Cc1ccnc(NC(=O)C2CCN(CCCn3ccnc3C)CC2)c1	-13%
NC(=O)C1CCN(C(=O)NCc2ccccc2-n2cccn2)C1 (stereo not given)	-4.02%
COCc1cc(NCCc2ccc(OC)cc2)n2nccc2n1	-24.5%
CN(C)C(=O)CNC(CC(F)(F)F)c1ccc(F)cc1 (stereo not given)	7.18%
Cc1nn(C)c(C)c1NC(=O)CNC(c1ccc(F)cc1)C1CCC1 (stereo not given)	-7.04%
Cc1ccc([C@@H]2CN(S(=O)(=O)N3CCC(C)CC3)C[C@H]2N(C)C)cc1	-12.1%
COc1c(F)cccc1C(=O)N(C)Cc1nc(-c2ccccn2)no1	-6.48%
COCCC1(CNC(=O)NCC2CCC2)CCC1	-0.0221%
Cc1cc(C)c(CNC(=O)NCC(O)COc2ccccc2)c(=O)[nH]1 (stereo not given)	21.6%
CCn1c(C2CCCN(S(=O)(=O)C3CC3)C2)nn(CCN(C)C)c1=O (stereo not given)	0.856%
CCOCC1CN(Cc2cccnc2)Cc2nn(C)cc21 (stereo not given)	-11.3%
Cc1n[nH]c(C)c1CNC(=O)CSCc1ccccc1Cl	-0.888%
CS(=O)(=O)N1C[C@H]2CCCN(Cc3ccsc3)[C@H]2C1	13.4%
Cc1cc(C(=O)N2CCc3c(ncn3CCc3ccccc3)C2)on1	-7.15%
Cc1cc(C)c(C(=O)N2CCC3(CCCNC3)C2)cc1C (stereo not given)	25.6%

SMILES	cytotoxicity at 70.5 h
COCCN1C[C@@H](C(=O)O)[C@H](c2ccccc2C)C1	31.8%
Cc1nc(N2CCCC2)nc2c1CN(C(=O)N(C)C)CC2	-1.53%
OC1CCN(Cc2ccnc(-c3cccnc3)n2)CC1	-7.13%
O=C(c1ccco1)N1CCC(n2nc(-c3cccs3)ccc2=O)CC1	-5.47%
CCOC(=O)c1ccc(NC(=O)Cn2cc(I)cn2)cc1	-4.39%
Cc1nonc1NC(=O)C1SCCc2ccccc21 (stereo not given)	2.97%
CC(C)c1nn2c(-c3cnn(C)c3)nnc2s1	-9.47%
O=C(c1cccc(CO)n1)N1CCOC(c2ccc(Cl)c(Cl)c2)C1 (stereo not given)	-9.7%
CCCN(CC)C(=O)c1ncn2c1CN(C)S(=O)(=O)c1ccccc1-2	1.29%
O=c1ccc(-n2cccn2)nn1CCNS(=O)(=O)c1ccc(F)c(Cl)c1	2.64%
Cc1noc(C)c1CNC(=O)N(C1CC1)C(C)c1ccco1 (stereo not given)	-3.98%
Cc1ccc2c(c1)C(NCc1nnc3n1CCCCC3)CCCO2 (stereo not given)	11.8%
Cc1n[nH]c(SCC(=O)NC(c2ccccn2)C(C)C)n1 (stereo not given)	-0.841%
c1cc(CN2Cc3nnn(CC4CC4)c3C(COCC3CC3)C2)co1 (stereo not given)	-8.27%
CN(CC(O)C1CC1)C(=O)Nc1cc(F)cc(Br)c1 (stereo not given)	26.3%
CCn1c(CN(C)C)nnc1C1CCN(Cc2ccccc2)CC1	-10.3%
CC(C)C1SCC(=O)Nc2c1c(O)nn2C1CCCC1 (stereo not given)	-23.1%
CCn1nc(-c2ccccc2F)ccc1=O	-8.76%
O=C(O)[C@@H]1CN(C(=O)c2ccc(F)c(F)c2)C[C@H]1c1cccc(F)c1	-11.2%
Cn1cnnc1C1CCCN(C(=O)NCCn2ccnc2)C1 (stereo not given)	-10.4%
O=C(Cn1cccn1)Nc1ccc(N2CCCCC2)cc1	31.5%
FC(F)(F)CN1CCC(CNc2nc3ccccc3o2)C1 (stereo not given)	1.85%
O=c1cc(Cn2cncn2)nc2n1CCCN(Cc1ccsc1)C2	-11.7%

SMILES	cytotoxicity at 70.5 h
Cc1[nH]ccc1C(=O)NCC1CC(=O)N(CCc2ccccc2)C1 (stereo not given)	-3.09%
CNC(=O)c1ccc(-c2ccccc2)n1C	-9.17%
CCN(CC)CCNCc1cc(O)c2cc(C)ccc2n1	-11.3%
Cn1cnc2c1CCN(Cc1cccc(C(N)=O)c1)C2	-7.77%
CN1CCN(Cc2cn3c(n2)CN(C(=O)N2CCCC2)CC3)CC1	0.892%
O=C(NCC(O)c1cccs1)c1ccco1 (stereo not given)	-10.6%
O=C(NCC1CC1)[C@H]1C[C@H]2OCC[C@H]2N(Cc2ccsc2)C1	-4.19%
Cc1noc(C)c1-c1cc(CCC2CN(C(=O)C(C)C)CCO2)ncn1 (stereo not given)	-3.99%
CCCN1CCCCCC1Cc1c(C(=O)NC)sc2ccccc12 (stereo not given)	27.8%
CCc1cc(C(=O)N[C@H]2CN(CCS(C)(=O)=O)C[C@@H]2C2CC2)[nH]n1	-13.2%
O=S(=O)(CCN1CCCC1Cn1cncn1)c1ccccc1 (stereo not given)	-1.96%
CCc1cccc2cc(CN)c(=O)[nH]c12	-10%
O=C(NCc1nc(NC2CCCC2)c2cc(Cl)ccc2n1)c1ccoc1	5.65%
COc1cc(CNc2cnn(CC(F)F)c2)ccc1O	26.6%
O=C(c1cnc(-c2ccccc2)s1)N1CCOC2(CCCC2)C1	-3.97%
CC(NC(=O)N(C)Cc1ccncc1)c1nncn1C (stereo not given)	-4.45%
CC(NCc1ccc(-c2ccc(Cl)cc2)o1)c1nnc2n1CCC2 (stereo not given)	-4.6%
Cc1cnn(CC(C)NCc2ccc(OCc3cccnc3)cc2)c1 (stereo not given)	2.45%
O=C(CC1CCCC1)N1CCCC(c2n[nH]c3nccnc23)C1 (stereo not given)	-0.397%
O=C1C[C@H]2[C@@H](CCN2C(=O)Cc2cccs2)N1CC1CC1	-13.5%
Cc1nn(C)cc1-c1ccnc(N2CCN(c3ccccc3)C(=O)C2)n1	-3.19%
CC(C)N(CC(N)=O)C(=O)c1cc(F)ccc1N1CCN(C)CC1	-5.36%
COCc1nc(N(C)C)ncc1C(=O)NC(C)c1ccccc1 (stereo not given)	-5.51%

SMILES	cytotoxicity at 70.5 h
COC1CCN(C(=O)CCc2c(C)nc3ccnn3c2C)CC1	-0.665%
Cc1cnn(CC2CCCN2CC(=O)NC2CCN(C3CC3)CC2)c1 (stereo not given)	-3.72%
Cc1occc1C(=O)N1Cc2nccn2CC(CN2CCCC2)C1 (stereo not given)	-14.1%
O=C(NC[C@H]1OC[C@@H](NC2COC2)[C@@H]1O)Nc1ccccc1	-1.19%
c1ccc(Cn2ccnc2CN2CCOC(Cn3cccn3)C2)cc1 (stereo not given)	2.05%
Cc1ccc(CN2CC[C@H]3[C@@H]2CCC(=O)N3CCN2CCCC2)s1	11.4%
CC(=O)NC(C)C(=O)N(Cc1ccc(C)c(C)c1)C1CC1 (stereo not given)	0.332%
CC(C)(CNC1CCCN(Cc2ccccc2F)C1)CN1CCOCC1 (stereo not given)	-15.7%
Cc1ccc(N2CCC3(CC2)CC(OCC(C)C)C3)nn1	-8.68%
Cc1noc(C2CCCN(C(=O)c3ccc(Cl)cc3F)C2)n1 (stereo not given)	-7.02%
CN(Cc1cc2cc(F)ccc2[nH]1)c1cc(C2CCCNC2)ncn1 (stereo not given)	-0.169%
C[C@]1(O)CN(Cc2ncc[nH]2)CC[C@@H]1Oc1cccc(F)c1	-1.65%
CN(C)C(=O)CO[C@H]1CN(Cc2cccc(C#N)c2)[C@@H]2COC[C@H]12	7.63%
O=C(C1CCCN(c2nc3ccccc3cc2CO)C1)N1CCCC1 (stereo not given)	20.7%
Cc1ccc(N2CCC3(CN(Cc4cccs4)CCC3(F)F)C2)nn1 (stereo not given)	-7.32%
Cc1nc2n(n1)CC(Nc1nc(C(F)(F)F)nc3ccccc13)CC2 (stereo not given)	-1.15%
CCN(CC(=O)NC1(C)CCS(=O)(=O)C1)Cc1ccc(OC)c(F)c1 (stereo not given)	-9.28%
Cc1noc(C)c1CNCC1CNc2ccnn2C1 (stereo not given)	-7.43%
C=C(C)COc1ccccc1NC(=O)N1CCCCC1CO (stereo not given)	4.81%
Cc1nc(C)n(CC2CCCN(CCOc3cccc(F)c3)C2)n1 (stereo not given)	0.903%
Cn1cnc2c1CCN(CCCOc1ccc(S(C)(=O)=O)cc1)C2	-11.2%
CSc1ccsc1C(=O)NS(=O)(=O)c1cccc(C#N)c1	-13.1%
CCC(NC(=O)NCc1cccc(N(C)C)n1)c1ccccc1OC (stereo not given)	-7.5%
